# From patent US20230143042A1, “SYSTEM AND METHOD FOR AEROSOL PARTICLE PRODUCTION OF SUBMICRON AND NANO STRUCTURED MATERIALS” (The Trustees of Princeton University, priority 2020, published 2023)
# Assay: Size of dried aerosol particles by scanning electron microscopy
# Type: physicochemical
# Details: atomized at 1.5 bar gauge (TIPT-based sol 2.5 bar), dried in room air ~23° C., ~30% RH
# Description: Various concentrations (e.g., 0.5-15% wt.) of solutions of sodium chloride in deionized water was prepared by mixing the crystals of table salt (NaCl) with deionized water at 45° C. for 15 min. The procedure for preparing precursor of silica (SiO2) was: tetraethoxysilane (TEOS), ethanol, deionized water, and HCl (mole ratio 1:3.8:1:5×10−5) were mixed at 60° C. for 120 min and then aged at room temperature under continuous stirring up to 43 hours. For synthesis of titania (TiO2) particles, titanium (IV) tetraisopropoxide (TIPT) and titanium (IV) butoxide (TBT)-based precursors were utilized. […]
# For the salt solutions, the temperature and relative humidity of room air used for drying of droplets were ˜23° C. and ˜30% respectively. […] Provided the measured air velocity used to dry the droplets is ˜0.1-0.5 m/s (laminar flow, Re=300-1600), in terms of the drying kinetics of a single droplet, the generated droplets are expected to turn into dry particles after traveling 0.04-400 μm in room air, whereas the overall particle residence time in the setup is ˜1-5 s, which is much longer than the needed drying time. […]
smiles,measurement,value
"[Cl-].[Na+] [NaCl, sodium chloride]",mean particle size,227 nm
